Read-outs that look alike come from different tables or passages of the source.
Molecular target: human Nav 1.8 (Homo sapiens, UniProt Q9Y5Y9)
Assay: E-VIPR assay detecting and measuring Nav inhibition properties
Format: cell-based
Settings: HEK cells expressing a truncated form of human Nav 1.8, read-out: measured IC50 value in the E-VIPR Assay
Excerpt: E-VIPR Assay Detecting and Measuring Nav Inhibition Properties
Sodium ion channels are voltage-dependent proteins that can be activated by inducing membrane voltage changes by applying electric fields. The electrical stimulation instrument and methods of use, referred to as E-VIPR, are described in International Publication No. WO 2002/008748 A3 and C.-J. Huang et al. Characterization of voltage-gated sodium channel blockers by electrical stimulation and fluorescence detection of membrane potential, 24 Nature Biotech. 439-46 (2006), both of which are incorporated by reference in their entirety. The instrument comprises a microtiter plate handler, an optical system for exciting the coumarin dye while simultaneously recording the coumarin and oxonol emissions, a waveform generator, a current- or voltage-controlled amplifier, and parallel electrode pairs that are inserted into assay plate wells. Under integrated computer control, this instrument passes user-programmed electrical stimulus protocols to cells within the wells of the microtiter plate.
16-20 hours prior to running the assay on E-VIPR, HEK cells expressing a truncated form of human Nav 1.8 with full channel activity were seeded into microtiter 384-well plates, pre-coated with matrigel, at a density of 25,000 cells per well. 2.5-5% KIR2.1 Bacmam virus was added to the final cell suspension before seeding into cell plates. HEK cells were grown in Dulbecco's Modified Eagle's Medium (DMEM) supplemented with 10% FBS (Fetal Bovine Serum, qualified; Sigma #F4135), 1% NEAA (Non-Essential Amino Acids, Gibco #11140), 1% HEPES (Gibco #15630), 1% Pen-Strep (Penicillin-Streptomycin; Gibco #15140) and 5 μg/ml Blasticidin (Gibco #R^210-01). Cells were expanded in vented cap cell culture flasks, with 90-95% humidity and 5% CO2.
100 mg/mL Pluronic F-127 (Sigma #P2443), in dry DMSO
Compound Plates: Corning 384-well Polypropylene Round Bottom #3656
Cell Plates: 384-well tissue culture treated plates (Greiner #781091-2B)
2.5-5% KIR 2.1 Bacmam virus (produced in-house), prepared as described in Section 3.3 of J. A. Fornwald et al., Gene Expression in Mammalian Cells Using BacMam, a Modified Baculovirus System, 1350 Methods in Molecular Biology 95-116 (2016), the entire contents of which are incorporated by reference. The concentration used can be dependent on viral titer of each batch.
5 mM DiSBAC6(3), a voltage sensitive oxonol acceptor (CAS number 169211-44-3; 5-[3-(1,3-dihexylhexahydro-4,6-dioxo-2-thioxo-5-pyrimidinyl)-2-propen-1-ylidene]-1,3-dihexyldihydro-2-thioxo-4,6 (1H,5H)-pyrimidinedione), in dry DMSO. The preparation of DiSBAC6(3) is analogous to that of DiSBAC4(3) as described in Voltage Sensing by Fluorescence Resonance Energy Transfer in Single Cells, Gonzalez, J. E. and Tsien, R. Y. (1995) Biophys. J. 69, 1272-1280.
5 mM CC2-DMPE, a commercially available membrane-bound coumarin phospholipid FRET donor (ThermoFisher Scientific catalog number K1017, CAS number 393782-57-5; tetradecanoic acid, 1,1′-[(1R)-1-[8-(6-chloro-7-hydroxy-2-oxo-2H-1-benzopyran-3-yl)-3-hydroxy-3-oxido-8-oxo-2,4-dioxa-7-aza-3-phosphaoct-1-yl]-1,2-ethanediyl] ester) was prepared in dry DMSO. See also, Improved indicators of cell membrane potential that use fluorescence resonance energy transfer, Gonzalez, J. E. and Tsien, R. Y. (1997) Chem. Biol. 4, 269-277.
Voltage Assay Background Suppression Compound (VABSC-1) is prepared in H2O (89-363 mM, range used to maintain solubility)
Human Serum (HS, Millipore #S1P1-01KL, or Sigma SLBR5469V and SLBR5470V as a 50%/50% mixture, for 25% assay final concentration)
• Sodium Chloride 160 mM (9.35 g/L), Potassium Chloride, 4.5 mM (0.335 g/L), Glucose 10 mM (1.8 g/L), Magnesium Chloride (Anhydrous) 1 mM (0.095 g/L), Calcium Chloride 2 mM (0.222 g/L), HEPES 10 mM (2.38 g/L) in water. […]

[1] = compound numbers without "*" (not marked as run in the presence of human serum)
[2] = assay performed in the presence of human serum (compound numbers followed by "*")

human Nav 1.8, sequence (Q9Y5Y9 126-399 limits assumed): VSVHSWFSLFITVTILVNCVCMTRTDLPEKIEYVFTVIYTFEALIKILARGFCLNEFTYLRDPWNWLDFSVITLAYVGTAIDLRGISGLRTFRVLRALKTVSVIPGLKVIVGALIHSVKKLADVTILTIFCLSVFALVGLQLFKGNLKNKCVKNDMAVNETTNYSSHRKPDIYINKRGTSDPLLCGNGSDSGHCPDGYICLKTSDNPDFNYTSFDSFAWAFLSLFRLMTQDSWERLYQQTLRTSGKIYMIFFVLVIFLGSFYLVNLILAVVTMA
human Nav 1.8, sequence (Q9Y5Y9 660-890 limits assumed): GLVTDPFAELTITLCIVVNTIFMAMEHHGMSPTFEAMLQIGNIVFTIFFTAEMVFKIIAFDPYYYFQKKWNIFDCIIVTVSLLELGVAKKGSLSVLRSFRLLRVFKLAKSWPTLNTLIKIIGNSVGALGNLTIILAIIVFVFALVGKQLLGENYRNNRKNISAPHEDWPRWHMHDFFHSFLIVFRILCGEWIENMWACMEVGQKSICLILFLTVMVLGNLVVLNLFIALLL
human Nav 1.8, sequence (Q9Y5Y9 1148-1722 limits assumed): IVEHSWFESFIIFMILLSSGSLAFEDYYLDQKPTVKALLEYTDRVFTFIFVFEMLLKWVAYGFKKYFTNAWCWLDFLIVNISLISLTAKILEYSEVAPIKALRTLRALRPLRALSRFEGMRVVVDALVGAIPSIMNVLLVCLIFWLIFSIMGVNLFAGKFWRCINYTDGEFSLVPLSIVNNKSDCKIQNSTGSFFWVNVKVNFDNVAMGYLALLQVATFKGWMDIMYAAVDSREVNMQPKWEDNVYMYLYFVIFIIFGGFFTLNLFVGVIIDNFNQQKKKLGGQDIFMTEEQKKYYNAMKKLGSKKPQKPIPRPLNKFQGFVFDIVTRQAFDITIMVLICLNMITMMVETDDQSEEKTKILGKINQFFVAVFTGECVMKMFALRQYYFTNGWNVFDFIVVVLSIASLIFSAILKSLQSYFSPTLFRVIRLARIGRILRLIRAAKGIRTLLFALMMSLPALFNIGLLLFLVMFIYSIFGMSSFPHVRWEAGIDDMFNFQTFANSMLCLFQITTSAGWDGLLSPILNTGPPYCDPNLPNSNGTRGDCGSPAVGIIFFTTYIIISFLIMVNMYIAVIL

IC50 [1] [nM] | IC50 [2] [nM] | Compound
< 10 | – | COCc1c([C@H]2[C@H](C(=O)Nc3ccnc(C(N)=O)c3)O[C@@](C)(C(F)(F)F)[C@H]2C)ccc(F)c1F (racemic) [Compound 145, rac-4-((2R,3S,4S,5R)-3-(3,4-difluoro-2-(methoxymethyl)phenyl)-4,5-dimethyl-5-(trifluoromethyl)tetrahydrofuran-2-carboxamido)picolinamide]
100 to 1000 | – | CC(C)(O)COc1c([C@@H]2C[C@](C)(C(F)(F)F)O[C@H]2C(=O)Nc2ccnc(C(N)=O)c2)ccc(F)c1F (relative stereo) [Compound 32, rel-4-((2R,3S,5R)-3-(3,4-difluoro-2-(2-hydroxy-2-methylpropoxy)phenyl)-5-methyl-5-(trifluoromethyl)tetrahydrofuran-2-carboxamido) picolinamide]
10 to 100 | – | C[C@]1(C(F)(F)F)C[C@@H](c2ccc(F)c(F)c2OCCO)[C@H](C(=O)Nc2ccnc(C(N)=O)c2)O1 (relative stereo) [Compound 33, rel-4-((2R,3S,5R)-3-(3,4-difluoro-2-(2-hydroxyethoxy)phenyl)-5-methyl-5-(trifluoromethyl)tetrahydrofuran-2-carboxamido)picolinamide]
< 10 | – | COCCOc1c([C@@H]2C[C@](C)(C(F)(F)F)O[C@H]2C(=O)Nc2ccnc(C(N)=O)c2)ccc(F)c1F (relative stereo) [Compound 34, rel-4-((2R,3S,5R)-3-(3,4-difluoro-2-(2-methoxyethoxy)phenyl)-5-methyl-5-(trifluoromethyl)tetrahydrofuran-2-carboxamido)picolinamide]
– | 100 to 1000 | C[C@]1(C(F)(F)F)C[C@@H](c2ccc(F)c(F)c2OCCCO)[C@H](C(=O)Nc2ccnc(C(N)=O)c2)O1 (relative stereo) [Compound 35, rel-4-((2R,3S,5R)-3-(3,4-difluoro-2-(3-hydroxypropoxy)phenyl)-5-methyl-5-(trifluoromethyl)tetrahydrofuran-2-carboxamido)picolinamide]
< 10 | – | C[C@H]1[C@@H](c2ccc(F)c(F)c2OCCN2C[C@@H]3C[C@H]2CO3)[C@H](C(=O)Nc2ccnc(C(N)=O)c2)O[C@@]1(C)C(F)(F)F (relative stereo) [Compound 46, rel-4-((2R*,3S*,4S*,5R*)-3-(2-(2-((1S,4S)-2-oxa-5-azabicyclo[2.2.1]heptan-5-yl)ethoxy)-3,4-difluorophenyl)-4,5-dimethyl-5-(trifluoromethyl)tetrahydrofuran-2-carboxamido)picolinamide]
10 to 100 | – | C[C@H]1[C@@H](c2ccc(F)c(F)c2OCCN2C[C@H]3C[C@@H]2CO3)[C@H](C(=O)Nc2ccnc(C(N)=O)c2)O[C@@]1(C)C(F)(F)F (relative stereo) [Compound 47, rel-4-((2R*,3S*,4S*,5R*)-3-(2-(2-((1R,4R)-2-oxa-5-azabicyclo[2.2.1]heptan-5-yl)ethoxy)-3,4-difluorophenyl)-4,5-dimethyl-5-(trifluoromethyl)tetrahydrofuran-2-carboxamido)picolinamide]
10 to 100 | – | C[C@H]1[C@@H](c2ccc(F)c(F)c2OC[C@H]2CC[C@H]2O)[C@H](C(=O)Nc2ccnc(C(N)=O)c2)O[C@@]1(C)C(F)(F)F (relative stereo) [Compound 99, rel-4-((2R*,3S*,4S*,5R*)-3-(3,4-difluoro-2-(((1R,2R)-2-hydroxycyclobutyl)methoxy)phenyl)-4,5-dimethyl-5-(trifluoromethyl)tetrahydrofuran-2-carboxamido)picolinamide]
< 10 | – | COCCOc1c([C@H]2[C@H](C(=O)Nc3ccnc(C(N)=O)n3)O[C@@](C)(C(F)(F)F)[C@H]2C)ccc(F)c1C (single isomer, unassigned) [Compound 3]
≥ 1000 | – | COCCOc1c([C@@H]2[C@@H](C(=O)Nc3ccnc(C(N)=O)n3)O[C@](C)(C(F)(F)F)[C@@H]2C)ccc(F)c1C (single isomer, unassigned) [Compound 4]
≥ 1000 | – | COc1c(C2CC3(COC3)OC2C(=O)Nc2ccnc(C(N)=O)c2)ccc(F)c1C (single isomer, unassigned) [Compound 24]
≥ 1000 | – | COCC1(C)CC(c2ccc(F)c(F)c2OC)C(C(=O)Nc2ccnc(C(N)=O)c2)O1 (single isomer, unassigned) [Compound 27]
100 to 1000 | – | COCC1(C)CC(c2ccc(F)c(F)c2OC)C(C(=O)Nc2ccnc(C(N)=O)c2)O1 (single isomer, unassigned) [Compound 28]
≥ 1000 | – | COCC1(C)CC(c2ccc(F)c(F)c2OC)C(C(=O)Nc2ccnc(C(N)=O)c2)O1 (single isomer, unassigned) [Compound 29]
– | ≥ 1000 | COCC[C@]1(C)C[C@@H](c2ccc(F)c(F)c2OC)[C@H](C(=O)Nc2ccnc(C(N)=O)c2)O1 (single isomer, unassigned) [Compound 30]
100 to 1000 | – | COCC[C@@]1(C)C[C@H](c2ccc(F)c(F)c2OC)[C@@H](C(=O)Nc2ccnc(C(N)=O)c2)O1 (single isomer, unassigned) [Compound 31]
– | ≥ 1000 | Cc1c(F)ccc([C@H]2C[C@@](C)(C(F)(F)F)O[C@@H]2C(=O)Nc2ccnc(C(N)=O)c2)c1OCCO (single isomer, unassigned) [Compound 36]
– | 100 to 1000 | Cc1c(F)ccc([C@@H]2C[C@](C)(C(F)(F)F)O[C@H]2C(=O)Nc2ccnc(C(N)=O)c2)c1OCCO (single isomer, unassigned) [Compound 37]
< 10 | – | C[C@H]1[C@@H](c2ccc(F)c(F)c2OC[C@H]2CCO2)[C@H](C(=O)Nc2ccnc(C(N)=O)c2)O[C@@]1(C)C(F)(F)F (single isomer, unassigned) [Compound 59, rel-4-((2R*,3S*,4S*,5R*)-3-(3,4-difluoro-2-((oxetan-2-yl)methoxy)phenyl)-4,5-dimethyl-5-(trifluoromethyl)tetrahydrofuran-2-carboxamido)picolinamide]
< 10 | – | C[C@H]1[C@@H](c2ccc(F)c(F)c2OCC2CCOC2)[C@H](C(=O)Nc2ccnc(C(N)=O)c2)O[C@@]1(C)C(F)(F)F (single isomer, unassigned) [Compound 67]

Compound | IC50 [1] [nM] | IC50 [2] [nM]
CC[C@H](CO)COc1c([C@H]2[C@H](C(=O)Nc3ccnc(C(N)=O)c3)O[C@@](C)(C(F)(F)F)[C@H]2C)ccc(F)c1F (single isomer, unassigned) [Compound 92, rel-4-((2R*,3S*,4S*,5R*)-3-(3,4-difluoro-2-(2-(hydroxymethyl)butoxy)phenyl)-4,5-dimethyl-5-(trifluoromethyl)tetrahydrofuran-2-carboxamido)picolinamide] | 10 to 100 | –
CC[C@H](CO)COc1c([C@H]2[C@H](C(=O)Nc3ccnc(C(N)=O)c3)O[C@@](C)(C(F)(F)F)[C@H]2C)ccc(F)c1F (single isomer, unassigned) [Compound 93, rel-4-((2R*,3S*,4S*,5R*)-3-(3,4-difluoro-2-(2-(hydroxymethyl)butoxy)phenyl)-4,5-dimethyl-5-(trifluoromethyl)tetrahydrofuran-2-carboxamido)picolinamide] | < 10 | –
